# Measured values taken from patent US10954268B2, “Method of treating melanocortin-4 receptor-associated disorders in heterozygous carriers” (RHYTHM PHARMACEUTICALS, INC., priority 2011, dated 2021).
# Bridges are numbered along the chain shown (N, C = ends). [ ]: non-standard residue; d: D form.
# System: Diet induced obesity (DIO) littermate C57B1/6J mice
# Experiment: Treatment of obese MC4R+/− heterozygotic mice by Alzet pump infusion, body weight measured
# Assay type: in vivo
# Details: Alzet pump infusion 1200 nmol/kg/day for 8 days, FIG. 3
# Method: Body weight was measured.
# The weight change due to the exposure to the compound of SEQ ID NO: 140 in mice that are either wild type for the MC4R gene, or express only a single MC4R allele, or mice without any MC4R protein expression were compared.
substance,measurement,setting,value
Ac-Arg-c(Cys-D-Ala-His-D-Phe-Arg-Trp-Cys)-NH2 (Ac-RC[dA]H[dF]RWC-NH2; disulfide 2-8 (inferred)) [SEQ ID NO: 140],weight loss over the treatment period,"DIO homozygous MC4R knockout mice (−/−), no MC4R expression",did not show significant weight loss
same,body weight lost over the treatment period,DIO mice heterozygous for the MC4R gene (+/−),about 1 gram
